Paper PMC7927096, “Dipeptides of S-Substituted Dehydrocysteine as Artzyme Building Blocks: Synthesis, Complexing Abilities and Antiproliferative Properties” (International Journal of Molecular Sciences, 2021)
Where a name gives a salt, the structure may show the parent alone. Read-outs that look alike come from different tables or passages of the source.

Columns and labels:
[1] = tested on: ten diverse human cancer cells lines and murine non-tumorigenic cell line (Balb/3T3); assay: Antiproliferative screen, whole cell line panel (statements in words); format: cell-based; conditions: SRB; for antiproliferative activity (in words): across cell lines; for activity against resistant versus parent cell lines (in words): 10d: with exception of the line resistant to gemcitabine
Excerpt: (§1) Ten different human cancer cell lines (including drug-resistant sublines) and one non-tumorigenic murine fibroblasts cell line were used to determine antiproliferative activity of the tested compounds. The MDA-MB-231 (breast adenocarcinoma), UM-UC-3 (urinary bladder transitional cell carcinoma), LoVo (colorectal adenocarcinoma), LoVo^Dx (colorectal adenocarcinoma, doxorubicin-resistant) and Balb/3T3 (non-tumorigenic murine fibroblasts) were purchased from the American Type Culture Collection (ATCC; Rockville, USA). The MCF-7 (breast adenocarcinoma) and A549 (lung carcinoma) were purchased from European Collection of Authenticated Cell Cultures (ECACC; Porton Down, UK). The UM-UC-3^CDDP, UM-UC-3^GEM, UM-UC-3^VBL, and UM-UC-3^CDDP/GEM cell lines were established at Hirszfeld Institute of Immunology and Experimental Therapy of the Polish Academy of Sciences (HIIET, PAS, Wroclaw, Poland) by the continuous exposure to the increasing concentrations of corresponding cytostatics.
(§2) The Balb/3T3 and UM-UC-3 were cultured in Dulbecco’s Modified Eagle Medium (DMEM; Life Technologies, UK) supplemented with 10% (v/v) fetal bovine serum (FBS; GE Healthcare HyClone, Logan, USA) and 2 mM L-glutamine (Sigma-Aldrich, Poznań, Poland). The UM-UC-3^CDDP, UM-UC-3^GEM, UM-UC-^3VBL, and UM-UC-3^CDDP/GEM culture media were additionally supplemented with appropriate cytostatics: 2.5 µg/mL cisplatin (Accord, Warsaw, Poland) for UM-UC-3^CDDP, 500 nM gemcitabine (Sigma-Aldrich, Poznań, Poland) for UM-UC-3^GEM, 5 nM vinblastine (Sigma-Aldrich, Poznań, Poland) for UM-UC-3VBL, 2.5 µg/mL cisplatin and 500 nM gemcitabine for UM-UC-3^CDDP/GEM. The LoVo cell line was cultured in F-12K Nutrient Mixture (F-12K; Corning, Corning, USA), supplemented with 10% (v/v) FBS. LoVo^Dx culture medium was additionally supplemented with doxorubicin 100 ng/mL (Accord, Warsaw, Poland). The MCF-7 cell line was cultured in Eagle’s medium (HIIET, PAS, Wroclaw, Poland), supplemented with 10% (v/v) FBS (Sigma-Aldrich, Poznań, Poland), 2 mM L-glutamine, MEM non-essential amino acid solution 1% (v/v) (Sigma-Aldrich, Poznań, Poland), insulin 8 µg/mL (Sigma-Aldrich, Poznań, Poland). The MDA-MB-231 cell line was cultured in RPMI 1640 (HIIET, PAS, Wroclaw, Poland), supplemented with 10% (v/v) FBS (Sigma-Aldrich, Poznań, Poland) and 2 mM L-glutamine. The A 549 cell line was cultured in OptiMEM (HIIET, PAS, Wroclaw, Poland), supplemented with 5% (v/v) FBS (GE Healthcare HyClone, Logan, USA) and 2 mM L-glutamine. All culture media were supplemented with antibiotics—100 μg/mL streptomycin (Polfa Tarchomin, Warsaw, Poland) and 100 U/mL penicillin (Sigma-Aldrich, Poznań, Poland).
(§3) All cell lines were cultured in a humidified atmosphere at 37 °C with 5% (v/v) CO2 and passaged twice a week using EDTA-Trypsin solution (pH 8; HIIET, Wroclaw, Poland) as a detachment agent.
(§4) All compounds, for antiproliferative activity assessment, were stored at […] as 50 mM solutions in dimethyl sulfoxide (DMSO; Avantor Performance Materials, Gliwice, Poland).
(§5) The cells were seeded on 384-well plates (Greiner Bio One, Kremsmünster, Austria) at 1 × 10^3 cells/well density for A 549, UM-UC-3, UM-UC-3^CDDP, UM-UC-3^GEM, UM-UC-3^CVBL and UM-UC-3^CDDP/GEM cell lines. Other cell lines were seeded at 2 × 10^3 cells/well. After overnight incubation, compounds were applied at eight concentrations (ranging from 100 µM to 0.03 µM). After 72 h incubation, the sulforhodamine B (SRB) assay based on Skehan et al. was carried out with slight modifications. In brief, 50 µL of the medium was replaced with 30 µL/well of 25% (w/v) trichloroacetic acid (Avantor Performance Materials, Gliwice, Poland). After 1 h incubation at room temperature, plates were washed three times with tap water, and 20 µL of 0.1% (w/v) solution of sulforhodamine B (Sigma-Aldrich, Poznan, Poland) in 1% (v/v) acetic acid (Avantor Performance Materials, Gliwice, Poland) was added to each well. […]

[2] = tested on: Balb/3T3 (non-tumorigenic murine fibroblasts); assay: Antiproliferative activity, sulforhodamine B assay; format: cell-based; conditions: SRB, 72 h incubation, non-tumorigenic line, read-out: IC50 ± SD, Balb/3T3
Excerpt: as §1, §2, §3, §4, §5

[3] = tested on: UM-UC-3 (urinary bladder transitional cell carcinoma); assay: Antiproliferative activity, sulforhodamine B assay; format: cell-based, human; conditions: SRB, 72 h incubation, read-out: IC50 ± SD, UM-UC-3
Excerpt: as §1, §2, §3, §4, §5

[4] = tested on: LoVo^DX (colorectal adenocarcinoma, doxorubicin-resistant); assay: Antiproliferative activity, sulforhodamine B assay; format: cell-based, human; conditions: SRB, 72 h incubation, read-out: IC50 ± SD, LoVo^DX
Excerpt: as §1, §2, §3, §4, §5

A549 (lung carcinoma) = assay: Antiproliferative activity, sulforhodamine B assay; format: cell-based, human; conditions: SRB, 72 h incubation, read-out: IC50 ± SD, A-549
Excerpt: as §1, §2, §3, §4, §5

[5] = tested on: UM-UC-3^CDDP (cisplatin-resistant); assay: Antiproliferative activity, sulforhodamine B assay; format: cell-based, human; conditions: SRB, 72 h incubation, read-out: IC50 ± SD, UM-UC-3^CDDP
Excerpt: as §1, §2, §3, §4, §5

[6] = tested on: MCF-7 (breast adenocarcinoma); assay: Antiproliferative activity, sulforhodamine B assay; format: cell-based, human; conditions: SRB, 72 h incubation, read-out: IC50 ± SD, MCF-7
Excerpt: as §1, §2, §3, §4, §5

[7] = tested on: UM-UC-3^CDDP/GEM (resistant to cisplatin and gemcitabine); assay: Antiproliferative activity, sulforhodamine B assay; format: cell-based, human; conditions: SRB, 72 h incubation, read-out: IC50 ± SD, UM-UC-3^CDDP/GEM
Excerpt: as §1, §2, §3, §4, §5

[8] = tested on: LoVo (colorectal adenocarcinoma); assay: Antiproliferative activity, sulforhodamine B assay; format: cell-based, human; conditions: SRB, 72 h incubation, read-out: IC50 ± SD, LoVo
Excerpt: as §1, §2, §3, §4, §5

[9] = tested on: UM-UC-3^VBL (vinblastine-resistant); assay: Antiproliferative activity, sulforhodamine B assay; format: cell-based, human; conditions: SRB, 72 h incubation, read-out: IC50 ± SD, UM-UC-3^VBL
Excerpt: as §1, §2, §3, §4, §5

[10] = tested on: UM-UC-3^GEM (gemcitabine-resistant); assay: Antiproliferative activity, sulforhodamine B assay; format: cell-based, human; conditions: SRB, 72 h incubation, read-out: IC50 ± SD, UM-UC-3^GEM
Excerpt: as §1, §2, §3, §4, §5

[11] = tested on: MDA-MB-231 (breast adenocarcinoma); assay: Antiproliferative activity, sulforhodamine B assay; format: cell-based, human; conditions: SRB, 72 h incubation, read-out: IC50 ± SD, MDA-MB-231
Excerpt: as §1, §2, §3, §4, §5

Structure (SMILES)	antiproliferative activity (in words) [1]	activity against resistant versus parent cell lines (in words) [1]	IC50 ([2]; Mus musculus, BALB/3T3) [µM]	IC50 ([3]; Homo sapiens, UMUC3) [µM]	IC50 ([4]; Homo sapiens, LoVo/DX) [µM]	IC50 (A549 (lung carcinoma); Homo sapiens, A549) [µM]	IC50 ([5]; Homo sapiens) [µM]	IC50 ([6]; Homo sapiens, MCF7) [µM]	IC50 ([7]; Homo sapiens) [µM]	IC50 ([8]; Homo sapiens, LoVo) [µM]	IC50 ([9]; Homo sapiens) [µM]	IC50 ([10]; Homo sapiens) [µM]	IC50 ([11]; Homo sapiens, MDA-MB-231) [µM]	other results
COC(=O)/C(=C/Sc1nc2cc(OC)ccc2o1)NC(=O)[C@H](Cc1ccccc1)NC(=O)OC(C)(C)C [Compound 7c, Boc-Phe-ΔCys(S-5-methoxybenzoxazole)-OMe]	most potent representatives	equipotential towards both resistant and parent cell lines	5.3 ± 0.4	6.2 ± 0.8	4.5 ± 0.4	4 ± 1.1	6.8 ± 0.8	4.5 ± 0.4	5.9 ± 0.4	6.3 ± 0.5	5.8 ± 0.6	7 ± 0.5	7.1 ± 0.8	–
COC(=O)/C(=C/Sc1nc[nH]n1)NC(=O)[C@H](Cc1ccccc1)NC(=O)OC(C)(C)C [Compound 7a, Boc-Phe-ΔCys(S-triazole)-OMe]	markedly lower, if any, activity	–	19.7 ± 1.9	56 ± 5.7	> 100	60.7 ± 12.1	67.7 ± 3.9	74.5 ± 5.8	62.2 ± 5.3	75.8 ± 6.5	54.9 ± 3.5	65.2 ± 4.9	53.3 ± 5.5	–
COC(=O)/C(=C/Sc1nc2ccccc2s1)NC(=O)[C@@H](N)Cc1ccccc1 [Compound 10d, HCl Phe-ΔCys(S-benzothiazole)-OMe]	–	more effective against resistant cell lines	42.2 ± 9.3	30.5 ± 3.7	33.1 ± 9	14 ± 5.6	16.6 ± 2.5	22 ± 4.5	25.3 ± 8	70.3 ± 21.5	9.4 ± 2.2	67.8 ± 9.6	24.4 ± 3	–
COC(=O)/C(=C/Sc1nc2ccccc2s1)NC(=O)[C@H](Cc1ccccc1)NC(=O)OC(C)(C)C [Compound 7d, Boc-Phe-ΔCys(S-benzothiazole)-OMe]	most potent representatives	equipotential towards both resistant and parent cell lines	3.1 ± 0.6	6.7 ± 1.4	8.6 ± 0.9	6.6 ± 1.4	11.2 ± 1.5	6.8 ± 0.5	9.1 ± 1.2	9.6 ± 0.9	6.3 ± 1	8 ± 2.3	10.8 ± 0.4	–
[NH2][Pt]([NH2])([Cl])[Cl] [CDDP, cisplatin, reference compound]	–	–	–	–	–	–	–	–	–	–	–	–	–	IC50 [2]: 10.2 ± 4.8 µM; IC50 [3]: 2.4 ± 0.6 µM; IC50 [4]: 3.4 ± 0.2 µM; IC50 (A549 (lung carcinoma)): 2.7 ± 1 µM; IC50 [5]: 26.1 ± 1.8 µM; IC50 [6]: 6 ± 2.2 µM; IC50 [7]: 25.1 ± 1.9 µM; IC50 [8]: 4.4 ± 0.3 µM; IC50 [9]: 2.3 ± 0.3 µM; IC50 [10]: 2.6 ± 0.2 µM; IC50 [11]: 24.4 ± 4.8 µM
COC(=O)/C(=C/Sc1nc(-c2ccccc2)c[nH]1)NC(=O)CNC(=O)OC(C)(C)C [Compound 6b, Boc-Gly-ΔCys(S-4-phenylimidazole)-OMe]	–	–	38.4 ± 3.5	23.1 ± 2.6	> 100	27.2 ± 7.7	34.6 ± 3.6	31.8 ± 7.8	32.5 ± 4	32.4 ± 2.6	33.8 ± 2.6	35.1 ± 2.8	35 ± 10	–
COC(=O)/C(=C/Sc1nc(-c2ccccc2)c[nH]1)NC(=O)[C@H](Cc1ccccc1)NC(=O)OC(C)(C)C [Compound 7b, Boc-Phe-ΔCys(S-4-phenylimidazole)-OMe]	–	–	7.6 ± 0.9	13.5 ± 4.5	23 ± 2.2	12 ± 4	19 ± 3.2	15.5 ± 2.5	17.2 ± 2.1	16.4 ± 1.7	17.3 ± 1.7	19.9 ± 3.3	15.2 ± 4.4	–
